Among the test systems are COLO 205 colon; HCT-116 colon; HL-60(TB) leukemia; HS 578T breast; KM12 colon; MCF7 breast; NCI-H226 lung; NCI-H460 lung; OVCAR-3 ovarian; OVCAR-5 ovarian.
What all share (assay): growth of human tumour cells (NCI), 48 h

This passage reports GI50 and TGI results from PubChem BioAssay (NCI).

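96-well plates; 48 h exposure; 5 concentrations. Endpoints by linear interpolation between flanking doses. Not reached: highest tested concentration assigned. Abbreviation: GI50, concentration required for 50% inhibition of growth. TGI is the concentration that stops growth completely.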

Regarding `OCC1OC(n2cnc3c(NCc4ccccc4O)ncnc32)C(O)C1O` (stereo not given), the GI50 in the assay with COLO 205 colon is 0.524 µM; in the assay with HCT-116 colon, 0.131 µM; in the assay on HL-60(TB) leukemia, 0.228 µM; with HS 578T breast it was 1.96 µM; with KM12 colon it was 5.23 µM; in the assay with MCF7 breast, 2.05 µM. For the same compound, the GI50 with NCI-H226 lung was 8.65 µM; in the assay on NCI-H460 lung, 8.57 µM; in the assay with OVCAR-3 ovarian, 0.388 µM; in the assay with OVCAR-5 ovarian, 1.15 µM. In addition, the TGI was > 24.4 µM in the assay on COLO 205 colon; 3.4 µM in the assay on HCT-116 colon; 0.92 µM with HL-60(TB) leukemia; > 58.6 µM in the assay on HS 578T breast; > 100 µM with KM12 colon; 17.1 µM with MCF7 breast. In addition, the TGI is 23.2 µM in the assay with NCI-H226 lung, 46.3 µM in the assay with NCI-H460 lung, 2.08 µM in the assay on OVCAR-3 ovarian and > 67.1 µM in the assay with OVCAR-5 ovarian.

With `O=C(COc1cccc(/C=C2\Oc3ccc4ccccc4c3C2=O)c1)c1ccc([N+](=O)[O-])cc1`, the GI50 with COLO 205 colon is 21.8 µM; in the assay with HCT-116 colon, 16.5 µM; with HL-60(TB) leukemia it was 62.7 µM; in the assay on HS 578T breast, 18.2 µM; with KM12 colon it was 11.9 µM; in the assay with MCF7 breast, 11.1 µM. Also, the GI50 is 16.1 µM in the assay on NCI-H226 lung, 37 µM in the assay with NCI-H460 lung, 14.9 µM in the assay on OVCAR-3 ovarian and 27.3 µM in the assay on OVCAR-5 ovarian. Moreover, the TGI with COLO 205 colon was > 100 µM; in the assay on HCT-116 colon, 40.9 µM; in the assay on HL-60(TB) leukemia, > 100 µM; with HS 578T breast, 56.1 µM; in the assay on KM12 colon, 26.2 µM; with MCF7 breast, 28.6 µM. The TGI with NCI-H226 lung was 37.8 µM; with NCI-H460 lung, > 100 µM; with OVCAR-3 ovarian, 28 µM; with OVCAR-5 ovarian it was > 100 µM.

On to `C/C=C(\C)C(=O)O[C@@H]1C=CC(=O)O[C@H]1CNC(=O)[C@H](C)O`, for which the GI50 in the assay on COLO 205 colon is 8.96 µM; with HCT-116 colon it was 9.48 µM; in the assay on HL-60(TB) leukemia, 8.67 µM; in the assay on HS 578T breast, 16.7 µM; in the assay on KM12 colon it was 17.3 µM; in the assay with MCF7 breast it was 15 µM. The GI50 with NCI-H226 lung is 28.9 µM; in the assay on NCI-H460 lung, 22.2 µM; with OVCAR-3 ovarian it was 17.4 µM; in the assay with OVCAR-5 ovarian, 32 µM. The TGI was 27.2 µM in the assay with COLO 205 colon; 24.2 µM in the assay on HCT-116 colon; 32.3 µM with HL-60(TB) leukemia; 53.8 µM in the assay with HS 578T breast; 36.3 µM in the assay with KM12 colon; 46.7 µM with MCF7 breast. The TGI is > 81.4 µM with NCI-H226 lung, 67.9 µM with NCI-H460 lung, 37.8 µM in the assay with OVCAR-3 ovarian and > 73.2 µM with OVCAR-5 ovarian.

For `NS(=O)(=O)c1cc(C(=O)O)c(Cl)c([N+](=O)[O-])c1Cl`, the TGI in the assay with COLO 205 colon, in the assay on HCT-116 colon, in the assay on HL-60(TB) leukemia, in the assay on HS 578T breast, with KM12 colon and in the assay with MCF7 breast was > 100 µM each time. The TGI with NCI-H226 lung, in the assay on NCI-H460 lung, with OVCAR-3 ovarian and with OVCAR-5 ovarian was > 100 µM each time.

As for `Cc1ccc(C2C3Cc4ccccc4C3=NN2c2ccc(S(=O)(=O)NC(=O)Nc3ccccc3)cc2)cc1` (stereo not given), the GI50 in the assay on COLO 205 colon is 18.6 µM; in the assay with HCT-116 colon, 3.4 µM; in the assay on HL-60(TB) leukemia, 19.6 µM; in the assay with HS 578T breast, 17.4 µM; with KM12 colon it was 17.3 µM; with MCF7 breast, 17.1 µM. The GI50 is 15.9 µM in the assay on NCI-H226 lung, 19.3 µM in the assay on NCI-H460 lung, 14.7 µM in the assay on OVCAR-3 ovarian and 14.5 µM in the assay with OVCAR-5 ovarian. Also, the TGI was 53.3 µM in the assay with COLO 205 colon; 49.1 µM in the assay with HCT-116 colon; 42.1 µM in the assay with HL-60(TB) leukemia; 49.9 µM in the assay on HS 578T breast; 43.2 µM in the assay on KM12 colon; > 100 µM in the assay with MCF7 breast. In addition, the TGI in the assay with NCI-H226 lung was found to be 49.2 µM; in the assay with NCI-H460 lung, 70.1 µM; in the assay on OVCAR-3 ovarian, 36.5 µM; in the assay on OVCAR-5 ovarian, 30.5 µM.

Consider `CC(=O)/C=C/c1ccc(N(CCO)Cc2ccc(C(C)(C)C)cc2)cc1`, for which the GI50 with COLO 205 colon was 29.3 µM; with HCT-116 colon, 30 µM; in the assay on HL-60(TB) leukemia, 24.9 µM; in the assay on HS 578T breast, 80 µM; in the assay with KM12 colon, 39.6 µM; with MCF7 breast, 26.5 µM. Also, the GI50 in the assay on NCI-H226 lung is 73.3 µM; in the assay with NCI-H460 lung it was 39.9 µM; with OVCAR-3 ovarian it was 60.3 µM; in the assay with OVCAR-5 ovarian it was 63.3 µM. For the same compound, the TGI was 129 µM in the assay on COLO 205 colon; 125 µM in the assay with HCT-116 colon; 66.8 µM in the assay with HL-60(TB) leukemia; 297 µM in the assay on HS 578T breast; 155 µM in the assay with KM12 colon; 118 µM with MCF7 breast. Moreover, the TGI was determined as 248 µM in the assay with NCI-H226 lung, 144 µM in the assay with NCI-H460 lung, 187 µM in the assay with OVCAR-3 ovarian and 211 µM with OVCAR-5 ovarian.

Consider `O=C(Nc1cc2cc([N+](=O)[O-])ccc2oc1=O)c1cccs1`, for which the TGI in the assay with COLO 205 colon is 85.2 µM; in the assay with HCT-116 colon it was > 100 µM; in the assay with HL-60(TB) leukemia it was 44.5 µM; with HS 578T breast, > 100 µM; with KM12 colon it was 72.9 µM; with MCF7 breast, 85.2 µM. The TGI in the assay with NCI-H226 lung, in the assay on NCI-H460 lung, with OVCAR-3 ovarian and in the assay with OVCAR-5 ovarian was > 100 µM in each case.

Turning to `NCCCNc1nc2ccccc2c2c(=O)c3cc(F)cc(Cl)c3sc12`, the GI50 with COLO 205 colon was 1.92 µM; in the assay on HCT-116 colon it was 1.72 µM; in the assay on HL-60(TB) leukemia, 2.45 µM; with HS 578T breast it was 1.68 µM; in the assay with KM12 colon it was 1.72 µM; with MCF7 breast it was 1.19 µM. Also, the GI50 with NCI-H226 lung is 6.37 µM; in the assay with NCI-H460 lung, 1.64 µM; with OVCAR-3 ovarian, 1.78 µM; in the assay on OVCAR-5 ovarian, 1.65 µM. Besides, the TGI with COLO 205 colon turned out to be 4.41 µM; in the assay with HCT-116 colon, 3.12 µM; in the assay with HL-60(TB) leukemia it was 6.58 µM; in the assay on HS 578T breast, 3.62 µM; with KM12 colon, 3.17 µM; in the assay on MCF7 breast, 2.68 µM. For the same compound, the TGI in the assay with NCI-H226 lung came to 23.7 µM; in the assay with NCI-H460 lung it was 3.11 µM; in the assay with OVCAR-3 ovarian it was 3.25 µM; with OVCAR-5 ovarian it was 3.1 µM.
